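Briefly, cells in 96-well plates were exposed to five compound concentrations for 48 h, and endpoints were estimated by linear interpolation. At the GI50, growth is halved.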 Calls of active or inactive are those of the source. Rule as the data show it: active = GI50 up to about 1.1 µM and inactive = higher.
Tests used:
Experiment in all cases: growth of human tumour cells (NCI), 48 h
COLO 205 = test system: COLO 205
EKVX = test system: EKVX
HL-60 = test system: HL-60
HOP-92 = test system: HOP-92
Hs-578T = test system: Hs-578T
LOX IMVI = test system: LOX IMVI
OVCAR-3 = test system: OVCAR-3
OVCAR-5 = test system: OVCAR-5
RPMI-8226 = test system: RPMI-8226
SF-268 = test system: SF-268
SF-539 = test system: SF-539
SK-MEL-2 = test system: SK-MEL-2
SK-OV-3 = test system: SK-OV-3
SN12C = test system: SN12C
TK-10 = test system: TK-10
UO-31 = test system: UO-31
Malme-3M = test system: Malme-3M
A498 = test system: A498
RXF 393 = test system: RXF 393

SMILES	GI50 (COLO 205)	GI50 (EKVX)	GI50 (HL-60)	GI50 (HOP-92)	GI50 (Hs-578T)	GI50 (LOX IMVI)	GI50 (OVCAR-3)	GI50 (OVCAR-5)	GI50 (RPMI-8226)	GI50 (SF-268)	GI50 (SF-539)	GI50 (SK-MEL-2)	GI50 (SK-OV-3)	GI50 (SN12C)	GI50 (TK-10)	GI50 (UO-31)	GI50 (Malme-3M)	GI50 (A498)	GI50 (RXF 393)
CC1CCOc2ccc(cc2)/C=N\c2ccc(cc2)-c2ccc(cc2)/N=C\c2ccc(cc2)OCC1	> 100 µM (inactive)	> 100 µM (inactive)	> 100 µM (inactive)	> 100 µM (inactive)	> 100 µM (inactive)	> 100 µM (inactive)	> 100 µM (inactive)	> 100 µM (inactive)	> 100 µM (inactive)	> 100 µM (inactive)	> 100 µM (inactive)	> 100 µM (inactive)	> 100 µM (inactive)	> 100 µM (inactive)	> 100 µM (inactive)	> 100 µM (inactive)			
O=C(CNc1nccs1)Nn1cnc2ccc(S(=O)(=O)Nc3nccs3)cc2c1=O	> 100 µM (inactive)	> 100 µM (inactive)	> 100 µM (inactive)	> 100 µM (inactive)	> 100 µM (inactive)	> 100 µM (inactive)	> 100 µM (inactive)	> 100 µM (inactive)	> 100 µM (inactive)	> 100 µM (inactive)	> 100 µM (inactive)	> 100 µM (inactive)	> 100 µM (inactive)	> 100 µM (inactive)	> 100 µM (inactive)	> 100 µM (inactive)	> 100 µM (inactive)		
COc1ccc(OC2OC(CO)C(O)C(O)C2O)cc1 (stereo not given)	> 100 µM (inactive)	> 100 µM (inactive)	> 100 µM (inactive)		> 100 µM (inactive)	> 100 µM (inactive)	> 100 µM (inactive)	> 100 µM (inactive)	> 100 µM (inactive)	> 100 µM (inactive)	> 100 µM (inactive)	> 100 µM (inactive)	> 100 µM (inactive)	> 100 µM (inactive)	> 100 µM (inactive)	> 100 µM (inactive)	> 100 µM (inactive)	> 100 µM (inactive)	
O=C(CCc1nnc2s/c(=C\c3ccc(Cl)c(Cl)c3)c(=O)n12)Nc1ccc(Cl)c(Cl)c1	56.6 µM (inactive)	> 100 µM (inactive)	22.8 µM (inactive)	86.7 µM (inactive)		19.2 µM (inactive)	29.9 µM (inactive)	> 100 µM (inactive)	20.4 µM (inactive)	55.5 µM (inactive)	51.8 µM (inactive)		> 100 µM (inactive)	> 100 µM (inactive)	> 100 µM (inactive)	> 100 µM (inactive)	> 100 µM (inactive)	39 µM (inactive)	28.8 µM (inactive)
CC(=O)O[C@H]1CCC2[C@@H]3CCC4Nc5[nH]ncc5C[C@]4(C)C3CC[C@@]21C (stereo not given in full)	37.2 µM (inactive)	35.1 µM (inactive)	18.2 µM (inactive)			0.405 µM (active)	32.4 µM (inactive)	> 100 µM (inactive)	31.9 µM (inactive)	> 100 µM (inactive)	> 100 µM (inactive)	> 100 µM (inactive)	> 100 µM (inactive)	> 100 µM (inactive)	74.6 µM (inactive)	> 100 µM (inactive)	32.7 µM (inactive)	> 100 µM (inactive)	> 100 µM (inactive)
CC12CC1C(c1cccc([N+](=O)[O-])c1)(c1cccc([N+](=O)[O-])c1)N=N2 (stereo not given)	21.6 µM (inactive)	37.7 µM (inactive)	13 µM (inactive)	14.1 µM (inactive)	21.9 µM (inactive)	13.2 µM (inactive)	27.4 µM (inactive)	53.3 µM (inactive)	2.96 µM (inactive)	27.7 µM (inactive)	25.5 µM (inactive)	44.7 µM (inactive)	> 100 µM (inactive)	25.6 µM (inactive)	27.8 µM (inactive)	10.8 µM (inactive)	18.2 µM (inactive)	4.28 µM (inactive)	
Cc1ccc(S(=O)(=O)Nn2c(-c3ccccc3)c(C#N)c(-c3ccc(Cl)cc3)c(C#N)c2=O)cc1	24.5 µM (inactive)		14.6 µM (inactive)	19.5 µM (inactive)		21.4 µM (inactive)		47 µM (inactive)	14 µM (inactive)		21.1 µM (inactive)	20.2 µM (inactive)	35.4 µM (inactive)	35.7 µM (inactive)	38 µM (inactive)			21.8 µM (inactive)	25.2 µM (inactive)
[N-]=[N+]=CC(=O)OC1CCc2ccccc21 (stereo not given)	73.1 µM (inactive)	> 100 µM (inactive)	42.3 µM (inactive)	44.6 µM (inactive)		> 100 µM (inactive)	> 100 µM (inactive)	46.5 µM (inactive)	> 100 µM (inactive)	> 100 µM (inactive)		> 100 µM (inactive)	> 100 µM (inactive)	42.5 µM (inactive)	59.6 µM (inactive)	13.7 µM (inactive)	> 100 µM (inactive)	> 100 µM (inactive)	60.3 µM (inactive)
CC1CC(=O)Nc2ccc(/N=N/N(C)C)cc2N1C=O (stereo not given)	> 100 µM (inactive)	> 100 µM (inactive)			> 100 µM (inactive)		> 100 µM (inactive)	> 100 µM (inactive)	> 100 µM (inactive)	> 100 µM (inactive)		> 100 µM (inactive)	> 100 µM (inactive)	> 100 µM (inactive)	> 100 µM (inactive)	> 100 µM (inactive)	> 100 µM (inactive)		> 100 µM (inactive)
Cc1ccc(-n2nncc2[Si](C)(C)C)s1	> 100 µM (inactive)			> 100 µM (inactive)	> 100 µM (inactive)	> 100 µM (inactive)	> 100 µM (inactive)	> 100 µM (inactive)	> 100 µM (inactive)	> 100 µM (inactive)	> 100 µM (inactive)	> 100 µM (inactive)	> 100 µM (inactive)	> 100 µM (inactive)	> 100 µM (inactive)	> 100 µM (inactive)	> 100 µM (inactive)	> 100 µM (inactive)	
CC(C)=CCC/C(C)=C/CCC1(C)C2COC(=O)C21 (stereo not given)	48.3 µM (inactive)	53.2 µM (inactive)	19.8 µM (inactive)	18.2 µM (inactive)		26.7 µM (inactive)	37 µM (inactive)	> 100 µM (inactive)		> 100 µM (inactive)		70.5 µM (inactive)	> 100 µM (inactive)	77.3 µM (inactive)	> 100 µM (inactive)	43.3 µM (inactive)	> 100 µM (inactive)	> 100 µM (inactive)	> 100 µM (inactive)
CC(=O)OCC(OC(C)=O)C(OC(C)=O)C(OC(C)=O)C(=O)CNn1c(-c2ccccc2Cl)nc2ccccc2c1=O (stereo not given)	> 100 µM (inactive)	> 100 µM (inactive)	38.5 µM (inactive)			> 100 µM (inactive)	> 100 µM (inactive)	> 100 µM (inactive)	76 µM (inactive)	> 100 µM (inactive)	> 100 µM (inactive)	> 100 µM (inactive)	> 100 µM (inactive)	> 100 µM (inactive)		> 100 µM (inactive)	> 100 µM (inactive)	> 100 µM (inactive)	> 100 µM (inactive)
COc1cc(COC(=O)N(C)[C@@H](Cc2ccccc2)C(=O)O)c([N+](=O)[O-])cc1OC		> 100 µM (inactive)	> 100 µM (inactive)	> 100 µM (inactive)	> 100 µM (inactive)		> 100 µM (inactive)	> 100 µM (inactive)	> 100 µM (inactive)	> 100 µM (inactive)	> 100 µM (inactive)		> 100 µM (inactive)	> 100 µM (inactive)		> 100 µM (inactive)	> 100 µM (inactive)		
O=S(=O)(c1ccccc1)c1ccc(/N=N/O)nc1	> 100 µM (inactive)	> 100 µM (inactive)	> 10 µM (inactive)		> 100 µM (inactive)		> 100 µM (inactive)	> 100 µM (inactive)		> 100 µM (inactive)	> 100 µM (inactive)	> 100 µM (inactive)	> 100 µM (inactive)	> 100 µM (inactive)	> 100 µM (inactive)	> 100 µM (inactive)	> 100 µM (inactive)	> 100 µM (inactive)	
CC(=O)C1C(=O)C(=O)N(c2cccc(C)c2C)C1=O (stereo not given)	> 100 µM (inactive)	> 100 µM (inactive)	> 100 µM (inactive)	> 100 µM (inactive)		> 100 µM (inactive)	> 100 µM (inactive)	> 100 µM (inactive)			> 100 µM (inactive)	> 100 µM (inactive)	> 100 µM (inactive)	> 100 µM (inactive)	> 100 µM (inactive)	> 100 µM (inactive)			
COC(=O)c1c[nH]c(=O)[nH]c1=O [ISOOROTIC ACID METHYL ESTER]	> 100 µM (inactive)	> 100 µM (inactive)		30.5 µM (inactive)	> 100 µM (inactive)	> 100 µM (inactive)	> 100 µM (inactive)	> 100 µM (inactive)	> 100 µM (inactive)	> 100 µM (inactive)	> 100 µM (inactive)	> 100 µM (inactive)		> 100 µM (inactive)	> 100 µM (inactive)	> 100 µM (inactive)			
COc1c(O)c(OC)c(C(=O)/C=C/c2ccccc2)c(O)c1OC [PEDICIN]	41.7 µM (inactive)	23.1 µM (inactive)	58.2 µM (inactive)	21.2 µM (inactive)	30.5 µM (inactive)	30.3 µM (inactive)	22.2 µM (inactive)	58.9 µM (inactive)	34.6 µM (inactive)	29 µM (inactive)	30.5 µM (inactive)	24.9 µM (inactive)	> 100 µM (inactive)	18.3 µM (inactive)	36.3 µM (inactive)		22.8 µM (inactive)		

— ChEMBL document CHEMBL1201862, “PubChem BioAssay data set” (2004)
